Measured values from the supplement of paper PMC11061612.

Legend:
[1] = compound: NC1(c2ccc(-c3nc4ccn5c(=O)[nH]nc5c4cc3-c3ccccc3)cc2)CCC1 [MK-2206]; conditions: max 10 µM
Summary of the method: (§1)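 Plates with 1536 wells received cancer cell lines in 7.5 μl of DMEM/F12 or RPMI containing 10% FBS. After 24 hours at 37°C and 5% CO2, cells were dosed for 72 hours with final DMSO typically 0.2%, and viability was read by CellTiter-Glo 2.0 luminescence scaled between blank-well and DMSO-well means. The single-agent IC50 was taken from a logistic fit of the dose responses made with a non-linear mixed effects model, that logistic curve having two parameters.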

[2] = compound: CC(C)n1c(=O)n(C)c2cnc3cc(F)c(-c4ccc(OCCCN5CCCCC5)nc4)cc3c21 [AZD1390]; conditions: max 0.3 µM
Summary of the method: as §1

[3] = compound: COc1cc2ncnc(Nc3ccc(F)c(Cl)c3)c2cc1OCCCN1CCOCC1 [Gefitinib]; conditions: max 10 µM
Summary of the method: as §1

[4] = compound: O=C(c1cc(Cc2n[nH]c(=O)c3ccccc23)ccc1F)N1CCN(C(=O)C2CC2)CC1 [Olaparib]; conditions: max 10 µM
Summary of the method: as §1

[5] = compound: CCN(CCO)CCCOc1ccc2c(Nc3cc(CC(=O)Nc4cccc(F)c4)[nH]n3)ncnc2c1 [AZD2811]; conditions: max 1 µM
Summary of the method: as §1

[6] = compound: Cc1c2c(nn1C)CSCc1cc(n(C)n1)CSc1cc(c3ccccc3c1)OCCCc1c(C(=O)O)n(C)c3c-2c(Cl)ccc13 [AZD5991]; conditions: max 1 µM
Summary of the method: as §1

[7] = compound: C1CN(CCC1(C(=O)N[C@@H](CCO)C2=CC=C(C=C2)Cl)N)C3=NC=NC4=C3C=CN4 [AZD5363]; conditions: max 10 µM
Summary of the method: as §1

[8] = compound: C=CCn1c(=O)c2cnc(Nc3ccc(N4CCN(C)CC4)cc3)nc2n1-c1cccc(C(C)(C)O)n1 [AZD1775]; conditions: max 3 µM
Summary of the method: as §1

[9] = compound: CCc1c2c(nc3ccc(O)cc13)-c1cc3c(c(=O)n1C2)COC(=O)[C@]3(O)CC [SN-38]; conditions: max 0.3 µM
Summary of the method: as §1

[10] = compound: C[C@@H](Nc1cc(F)cc(F)c1)c1cc(C(=O)N(C)C)cc2c(=O)cc(N3CCOCC3)oc12 [AZD8186]; conditions: max 10 µM
Summary of the method: as §1

[11] = compound: CC(=O)c1c(C)c2cnc(Nc3ccc(N4CCNCC4)cn3)nc2n(C2CCCC2)c1=O [Palbociclib]; conditions: max 10 µM
Summary of the method: as §1

[12] = compound: CC(=O)Nc1cccc(-n2c(=O)n(C3CC3)c(=O)c3c(Nc4ccc(I)cc4F)n(C)c(=O)c(C)c32)c1 [Trametinib]; conditions: max 1 µM
Summary of the method: as §1

[13] = compound: CS(=O)(=O)CCNCc1ccc(-c2ccc3ncnc(Nc4ccc(OCc5cccc(F)c5)c(Cl)c4)c3c2)o1 [Lapatinib]; conditions: max 10 µM
Summary of the method: as §1

[14] = compound: COc1cc([C@@H]2c3cc4c(cc3[C@@H](O[C@@H]3O[C@@H]5CO[C@@H](C)O[C@H]5[C@H](O)[C@H]3O)[C@H]3COC(=O)[C@H]23)OCO4)cc(OC)c1O [Etoposide]; conditions: max 10 µM
Summary of the method: as §1

[15] = compound: O=C(Nc1ccc2[nH]nc(-c3ccncc3)c2c1)[C@@H]1CCN(CC(=O)N2CCN(c3ccc(-c4ncccn4)cc3)CC2)C1; conditions: max 5 µM
Summary of the method: as §1

[16] = compound: C1CC(C1)(C(=O)[O-])C(=O)[O-].N.N.[Pt+2] [Carboplatin]; conditions: max 10 µM
Summary of the method: as §1

[17] = compound: C[C@@H](Oc1cc(-c2cnn(C3CCNCC3)c2)cnc1N)c1c(Cl)ccc(F)c1Cl [Crizotinib]; conditions: max 10 µM
Summary of the method: as §1

[18] = compound: COc1cccc(OCCCN)c1-c1cc(Nc2cnc(C#N)cn2)n[nH]1 [Prexasertib]; conditions: max 1 µM
Summary of the method: as §1

[19] = compound: COc1nnc2ccc(N3CCC(c4ccc(OCCN5CCN(C)C(=O)[C@H]5C)cc4)CC3)nn12 [AZD5153]; conditions: max 1 µM
Summary of the method: as §1

[20] = compound: COc1cccc2c1C(=O)c1c(O)c3c(c(O)c1C2=O)C[C@@](O)(C(=O)CO)C[C@@H]3O[C@H]1C[C@H](N)[C@H](O)[C@H](C)O1 [Doxorubicin]; conditions: max 1 µM
Summary of the method: as §1

[21] = compound: N#Cc1cnc(Nc2cc(NC[C@H]3CNCCO3)c(C(F)(F)F)cn2)cn1 [SRA737]; conditions: max 10 µM
Summary of the method: as §1

[22] = compound: Nc1ccn([C@@H]2O[C@H](CO)[C@@H](O)C2(F)F)c(=O)n1 [Gemcitabine]; conditions: max 0.3 µM
Summary of the method: as §1

[23] = compound: CC1(C)CCC(CN2CCN(c3ccc(C(=O)NS(=O)(=O)c4ccc(NCC5CCOCC5)c([N+](=O)[O-])c4)c(Oc4cnc5[nH]ccc5c4)c3)CC2)=C(c2ccc(Cl)cc2)C1 [Venetoclax]; conditions: max 1 µM
Summary of the method: as §1

[24] = compound: CC1=CN2[C@@H](C1)C=NC3=CC(=C(C=C3C2=O)OC)OCCCCCOC4=C(C=C5C(=C4)N=C[C@@H]6CC(=CN6C5=O)C)OC [SG3199]; conditions: max 0.001 µM
Summary of the method: as §1

[25] = compound: O=c1[nH]cc(F)c(=O)[nH]1 [5-Fluorouracil]; conditions: max 20 µM
Summary of the method: as §1

[26] = compound: Cn1cnc2c(F)c(Nc3ccc(Br)cc3Cl)c(C(=O)NOCCO)cc21 [Selumetinib]; conditions: max 10 µM
Summary of the method: as §1

[27] = compound: C[C@@H]1COCCN1C2=NC(=NC(=C2)C3(CC3)[S@](=N)(=O)C)C4=C5C=CNC5=NC=C4 [AZD6738]; conditions: max 10 µM
Summary of the method: as §1

[28] = compound: CN(CC[C@H](CSC1=CC=CC=C1)NC2=C(C=C(C=C2)S(=O)(=O)NC(=O)C3=CC=C(C=C3)N4CCC(CC4)[C@H](C5=CC=CC=C5C6=CC=C(C=C6)Cl)O)S(=O)(=O)C(F)(F)F)CCO [AZD4320]; conditions: max 1 µM
Summary of the method: as §1

[29] = compound: Cc1cc2ncnn2cc1Nc1ncc2c(n1)n(C1CCOCC1)c(=O)n2C [AZD7648]; conditions: max 10 µM
Summary of the method: as §1

[30] = compound: CN(C)CCCOc1ccc(-c2ccc3ncc4c(c3c2)n(C2CCOCC2)c(=O)n4C)cn1 [AZD0156]; conditions: max 3 µM
Summary of the method: as §1

[31] = compound: CC(=O)O[C@H]1C(=O)[C@@]2(C)[C@H]([C@H](OC(=O)c3ccccc3)[C@]3(O)C[C@H](OC(=O)[C@H](O)[C@@H](NC(=O)c4ccccc4)c4ccccc4)C(C)=C1C3(C)C)[C@]1(OC(C)=O)CO[C@@H]1C[C@@H]2O [Paclitaxel]; conditions: max 3 µM
Summary of the method: as §1

[32] = compound: Cc1nc(-c2cn3c(n2)-c2ccc(-c4cnn(C(C)(C)C(N)=O)c4)cc2OCC3)n(C(C)C)n1 [Taselisib]; conditions: max 10 µM
Summary of the method: as §1

[33] = compound: CC1=C(C(=CC=C1)Cl)NC(=O)C2=CN=C(S2)NC3=CC(=NC(=N3)C)N4CCN(CC4)CCO [Dasatinib]; conditions: max 2 µM
Summary of the method: as §1

[34] = compound: COc1cc(Nc2ncc3c(n2)-c2ccc(Cl)cc2C(c2c(F)cccc2OC)=NC3)ccc1C(=O)O [Alisertib]; conditions: max 10 µM
Summary of the method: as §1

[35] = compound: C[C@@H](c1ccc2nccn2c1)n1nnc2ncc(-c3cnn(C)c3)nc21 [Savolitinib]; conditions: max 1 µM
Summary of the method: as §1

Row | Cell Line | IC50, cell viability 72 h [1] | IC50, cell viability 72 h [2] | IC50, cell viability 72 h [3] | IC50, cell viability 72 h [4] | IC50, cell viability 72 h [5] | IC50, cell viability 72 h [6] | IC50, cell viability 72 h [7] | IC50, cell viability 72 h [8] | IC50, cell viability 72 h [9] | IC50, cell viability 72 h [10] | IC50, cell viability 72 h [11] | IC50, cell viability 72 h [12] | IC50, cell viability 72 h [13] | IC50, cell viability 72 h [14] | IC50, cell viability 72 h [15] | IC50, cell viability 72 h [16] | IC50, cell viability 72 h [17] | IC50, cell viability 72 h [18] | IC50, cell viability 72 h [19] | IC50, cell viability 72 h [20] | IC50, cell viability 72 h [21] | IC50, cell viability 72 h [22] | IC50, cell viability 72 h [23] | IC50, cell viability 72 h [24] | IC50, cell viability 72 h [25] | IC50, cell viability 72 h [26] | IC50, cell viability 72 h [27] | IC50, cell viability 72 h [28] | IC50, cell viability 72 h [29] | IC50, cell viability 72 h [30] | IC50, cell viability 72 h [31] | IC50, cell viability 72 h [32] | IC50, cell viability 72 h [33] | IC50, cell viability 72 h [34] | IC50, cell viability 72 h [35]
1 | NCI-H64 (Small Cell Lung Carcinoma) | > 10000 nM | > 300 nM | > 10000 nM | > 10000 nM | 597 nM | > 1000 nM | > 10000 nM | 236 nM | > 300 nM | > 10000 nM | > 10000 nM | > 1000 nM | > 10000 nM | > 10000 nM | > 5000 nM | > 10000 nM | 5170 nM | 19.6 nM | > 1000 nM | > 1000 nM | 3840 nM | > 300 nM | > 1000 nM | > 1 nM | > 20000 nM | > 10000 nM | 3170 nM | 230 nM | > 10000 nM | > 3000 nM | 527 nM | > 10000 nM | > 2000 nM | 4900 nM | > 1000 nM
2 | TT (Thyroid Gland Carcinoma) | > 10000 nM | > 300 nM | > 10000 nM | > 10000 nM | > 1000 nM | > 1000 nM | > 10000 nM | > 3000 nM | 68.8 nM | > 10000 nM | > 10000 nM | > 1000 nM | > 10000 nM | > 10000 nM | > 5000 nM | > 10000 nM | > 10000 nM | 249 nM | 808 nM | > 1000 nM | > 10000 nM | > 300 nM | > 1000 nM | > 1 nM | > 20000 nM | > 10000 nM | > 10000 nM | > 1000 nM | > 10000 nM | > 3000 nM | > 3000 nM | > 10000 nM | > 2000 nM | > 10000 nM | > 1000 nM
3 | BICR22 (Oral Cavity Carcinoma) | > 10000 nM | > 300 nM | > 10000 nM | > 10000 nM | > 1000 nM | > 1000 nM | > 10000 nM | 1850 nM | 6.59 nM | > 10000 nM | > 10000 nM | > 1000 nM | > 10000 nM | 3150 nM | > 5000 nM | > 10000 nM | > 10000 nM | 54.5 nM | > 1000 nM | 158 nM | > 10000 nM | 12.1 nM | > 1000 nM | > 1 nM | 1850 nM | > 10000 nM | 3410 nM | > 1000 nM | > 10000 nM | > 3000 nM | < 3 nM | 928 nM | > 2000 nM | 6990 nM | > 1000 nM
4 | KARPAS-422 (B-Cell Non-Hodgkin's Lymphoma) | 1070 nM | > 300 nM | > 10000 nM | > 10000 nM | > 1000 nM | 206 nM | 3560 nM | 768 nM | 17 nM | 644 nM | 3050 nM | > 1000 nM | > 10000 nM | 3440 nM | > 5000 nM | > 10000 nM | > 10000 nM | 17.6 nM | 144 nM | 634 nM | > 10000 nM | 92.2 nM | 644 nM | > 1 nM | > 20000 nM | > 10000 nM | 9320 nM | 230 nM | > 10000 nM | > 3000 nM | 957 nM | 4630 nM | 1510 nM | > 10000 nM | > 1000 nM
5 | IGR-37 (Melanoma) | > 10000 nM | > 300 nM | > 10000 nM | > 10000 nM | > 1000 nM | > 1000 nM | > 10000 nM | 846 nM | 26.2 nM | > 10000 nM | > 10000 nM | 3.42 nM | > 10000 nM | > 10000 nM | 361 nM | > 10000 nM | > 10000 nM | 12.9 nM | 846 nM | 746 nM | 3480 nM | 45.9 nM | > 1000 nM | > 1 nM | > 20000 nM | 339 nM | 5360 nM | > 1000 nM | > 10000 nM | > 3000 nM | 86.5 nM | 4360 nM | > 2000 nM | > 10000 nM | > 1000 nM
